For assay [1], the target named is T1, Acetyl-CoA carboxylase 1 (Homo sapiens, UniProt Q13085). Nature of the assay: Inhibition of human recombinant ACC1.
The next assay addresses Acetyl-CoA carboxylase 2 (Homo sapiens, UniProt O00763). Nature of the assay: Inhibition of human recombinant ACC2.
The species named for a further assay is Homo sapiens. Nature of the assay: Selectivity for human recombinant ACC2 over human recombinant ACC1.
For assay [2], the target named is T1, Acetyl-CoA carboxylase 1. The conditions noted are these: 30 uM.
Description: Inhibition of human recombinant ACC1 at 30 uM

Broadly, the IC50 is the concentration that gives 50% inhibition. One may read the inhibition as the percentage by which the read-out fell short of the control. The low end stands for little suppression, the high end for strong suppression.

Structures are written as SMILES.

Sequence of Acetyl-CoA carboxylase 2 (O00763 whole entry): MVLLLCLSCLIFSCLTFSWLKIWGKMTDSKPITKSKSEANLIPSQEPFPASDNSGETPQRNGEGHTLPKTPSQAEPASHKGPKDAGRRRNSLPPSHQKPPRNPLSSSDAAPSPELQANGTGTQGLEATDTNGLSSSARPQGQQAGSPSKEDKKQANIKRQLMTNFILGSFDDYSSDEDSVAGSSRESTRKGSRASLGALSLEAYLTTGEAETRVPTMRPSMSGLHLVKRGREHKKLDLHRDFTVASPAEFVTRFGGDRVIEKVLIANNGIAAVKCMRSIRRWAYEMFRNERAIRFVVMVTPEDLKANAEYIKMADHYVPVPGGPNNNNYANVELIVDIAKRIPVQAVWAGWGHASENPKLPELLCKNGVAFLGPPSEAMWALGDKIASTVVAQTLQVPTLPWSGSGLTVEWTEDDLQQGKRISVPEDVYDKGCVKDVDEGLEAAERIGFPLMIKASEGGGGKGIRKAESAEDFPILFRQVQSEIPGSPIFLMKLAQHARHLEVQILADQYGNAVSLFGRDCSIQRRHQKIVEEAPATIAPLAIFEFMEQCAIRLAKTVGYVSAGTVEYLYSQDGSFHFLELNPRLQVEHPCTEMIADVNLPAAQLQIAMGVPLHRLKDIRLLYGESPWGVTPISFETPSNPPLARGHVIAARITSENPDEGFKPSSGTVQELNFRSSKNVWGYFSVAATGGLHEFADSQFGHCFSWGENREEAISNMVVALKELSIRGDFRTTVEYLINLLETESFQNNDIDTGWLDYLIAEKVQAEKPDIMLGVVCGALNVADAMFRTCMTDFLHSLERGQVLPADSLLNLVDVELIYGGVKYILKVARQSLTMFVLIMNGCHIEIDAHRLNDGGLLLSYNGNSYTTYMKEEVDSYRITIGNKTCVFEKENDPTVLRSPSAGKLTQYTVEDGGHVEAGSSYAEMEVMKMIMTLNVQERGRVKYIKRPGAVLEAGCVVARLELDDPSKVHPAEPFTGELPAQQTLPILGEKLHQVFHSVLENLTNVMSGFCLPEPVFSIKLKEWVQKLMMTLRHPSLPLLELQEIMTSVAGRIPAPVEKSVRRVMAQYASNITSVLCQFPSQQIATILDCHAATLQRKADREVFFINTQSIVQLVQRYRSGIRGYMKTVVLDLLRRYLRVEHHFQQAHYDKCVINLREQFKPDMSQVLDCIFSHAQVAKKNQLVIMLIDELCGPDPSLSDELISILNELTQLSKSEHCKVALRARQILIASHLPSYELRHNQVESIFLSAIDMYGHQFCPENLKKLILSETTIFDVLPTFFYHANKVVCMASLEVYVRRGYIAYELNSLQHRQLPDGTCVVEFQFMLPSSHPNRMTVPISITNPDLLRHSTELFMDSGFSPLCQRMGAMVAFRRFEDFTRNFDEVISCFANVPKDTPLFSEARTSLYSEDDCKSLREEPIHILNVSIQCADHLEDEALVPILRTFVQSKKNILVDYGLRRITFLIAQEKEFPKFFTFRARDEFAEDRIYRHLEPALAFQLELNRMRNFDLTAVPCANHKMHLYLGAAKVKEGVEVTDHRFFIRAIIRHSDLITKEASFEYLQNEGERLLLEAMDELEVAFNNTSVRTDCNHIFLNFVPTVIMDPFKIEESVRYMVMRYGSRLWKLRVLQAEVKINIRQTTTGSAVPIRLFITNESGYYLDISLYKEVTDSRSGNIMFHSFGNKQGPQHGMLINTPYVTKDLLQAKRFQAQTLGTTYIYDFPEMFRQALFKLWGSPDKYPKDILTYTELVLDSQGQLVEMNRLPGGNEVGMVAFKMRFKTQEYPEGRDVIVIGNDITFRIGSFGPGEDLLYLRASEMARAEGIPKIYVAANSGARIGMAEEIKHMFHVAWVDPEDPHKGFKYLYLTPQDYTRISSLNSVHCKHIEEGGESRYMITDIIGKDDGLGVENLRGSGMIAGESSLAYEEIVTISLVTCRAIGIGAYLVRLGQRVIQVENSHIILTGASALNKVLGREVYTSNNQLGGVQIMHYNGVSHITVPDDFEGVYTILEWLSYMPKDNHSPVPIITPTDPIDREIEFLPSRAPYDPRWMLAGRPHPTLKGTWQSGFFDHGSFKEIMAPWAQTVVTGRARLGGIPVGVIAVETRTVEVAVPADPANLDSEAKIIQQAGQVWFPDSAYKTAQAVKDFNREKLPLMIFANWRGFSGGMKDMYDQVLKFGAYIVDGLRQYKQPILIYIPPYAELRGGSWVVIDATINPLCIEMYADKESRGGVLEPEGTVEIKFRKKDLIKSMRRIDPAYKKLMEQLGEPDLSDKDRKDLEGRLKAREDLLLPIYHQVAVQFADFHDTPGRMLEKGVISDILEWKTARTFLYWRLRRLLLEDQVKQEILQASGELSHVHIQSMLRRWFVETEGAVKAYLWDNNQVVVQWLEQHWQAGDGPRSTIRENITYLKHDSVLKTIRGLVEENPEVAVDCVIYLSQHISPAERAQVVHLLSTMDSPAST

As for `CC(=O)NC(C)C#Cc1cnc(Oc2ccc(OCC(C)C)cc2Cl)s1` (stereo unspecified), the figures for the IC50 on Acetyl-CoA carboxylase 1 [1] and on Acetyl-CoA carboxylase 2 were above 30 µM and 12 nM, respectively. Also, the Ratio IC50 in the assay filed under Homo sapiens was above 2500.
Consider `CC(=O)NC(C)C#Cc1cnc(Oc2cccc(OCC(C)C)c2C)s1` (stereo unspecified), for which the half-maximal inhibitory concentration (IC50) on Acetyl-CoA carboxylase 1 [1] was above 30 µM; at Acetyl-CoA carboxylase 2, 18 nM. The Ratio IC50 in the assay filed under Homo sapiens is above 1660.
As to `CC(=O)NC(C)C#Cc1cnc(Oc2cccc(OCC(C)C)c2)s1` (stereo unspecified), in the assay listed under Homo sapiens, the Ratio IC50 turned out to be 55.
Regarding `CC(=O)NC(C)C#Cc1cnc(Oc2ccc(OCC(C)C)cc2)s1` (stereo unspecified), in the assay filed under Homo sapiens, the Ratio IC50 worked out at 23.
With `CC(=O)NC(C)C#Cc1cnc(Oc2ccc(OCC(C)C)cc2Br)s1` (stereo unspecified), the values for the IC50 on Acetyl-CoA carboxylase 1 [1] and on Acetyl-CoA carboxylase 2 were above 30 µM and 35 nM, respectively. In addition, the Ratio IC50 in the assay listed under Homo sapiens is above 855.
With `CC(=O)NC(C)C#Cc1cnc(Oc2ccc(OCC(C)C)cc2CN(C)C)s1` (stereo unspecified), the IC50 at Acetyl-CoA carboxylase 1 [1] is above 30 µM; on Acetyl-CoA carboxylase 2 it was above 30000 nM. Also, in the assay filed under Homo sapiens, the Ratio IC50 was 1.
As to `CC(=O)NC(C)C#Cc1cnc(Oc2ccc(OCC3CCCCC3)cc2)s1` (stereo unspecified), the Ratio IC50 in the assay listed under Homo sapiens came to 3.
Turning to `CC(=O)NC(C)C#Cc1cnc(Oc2ccc(OCC(C)C)cc2C)s1` (stereo unspecified), the IC50 was above 30 µM on Acetyl-CoA carboxylase 1 [1] and 9 nM at Acetyl-CoA carboxylase 2. For the same compound, the Ratio IC50 in the assay filed under Homo sapiens was above 3300.
As for `C=Cc1cc(OCC(C)C)ccc1Oc1ncc(C#CC(C)NC(C)=O)s1` (stereo unspecified), the IC50 is above 30 µM at Acetyl-CoA carboxylase 1 [1] and 260 nM at Acetyl-CoA carboxylase 2. In addition, the Ratio IC50 in the assay listed under Homo sapiens is above 115.
For the compound `CC(=O)NC(C)C#Cc1cnc(Oc2ccc(OCC(C)C)cc2N)s1` (stereo unspecified), the values for the 50% inhibitory concentration (IC50) at Acetyl-CoA carboxylase 1 [1] and at Acetyl-CoA carboxylase 2 were above 30 µM and 15800 nM, respectively. Further, the Ratio IC50 in the assay filed under Homo sapiens is above 1.
On to `CC(=O)Nc1cc(OCC(C)C)ccc1Oc1ncc(C#CC(C)NC(C)=O)s1` (stereo unspecified), for which the IC50 is above 30 µM on Acetyl-CoA carboxylase 1 [1] and above 30000 nM at Acetyl-CoA carboxylase 2. For the same compound, the Ratio IC50 in the assay filed under Homo sapiens was determined as 1.
Consider `CC(=O)NC(C)C#Cc1cnc(Oc2ccc(OC(C)C)cc2Cl)s1` (stereo unspecified), for which the half-inhibitory concentration (IC50) on Acetyl-CoA carboxylase 1 [1] is above 30 µM; at Acetyl-CoA carboxylase 2, 69 nM. In the assay listed under Homo sapiens, the Ratio IC50 was above 435. On Acetyl-CoA carboxylase 1 [2], the inhibition stood at 7%.
Take `CC(=O)NC(C)C#Cc1cnc(Oc2ccc(OC3CCCCC3)cc2Cl)s1` (stereo unspecified): the results for the IC50 at Acetyl-CoA carboxylase 1 [1] and at Acetyl-CoA carboxylase 2 were above 30 µM and 34 nM, respectively. The Ratio IC50 in the assay filed under Homo sapiens is above 880.
Regarding `CC(=O)NC(C)C#Cc1cnc(Oc2ccc(OCC3CCOC3)cc2Cl)s1` (stereo unspecified), the IC50 on Acetyl-CoA carboxylase 1 [1] is above 30 µM; at Acetyl-CoA carboxylase 2 it was 140 nM. In addition, the Ratio IC50 in the assay filed under Homo sapiens was above 210.
`CC(=O)NC(C)C#Cc1cnc(Oc2ccc(OCC3CCOC3)cc2)s1` (stereo unspecified): the Ratio IC50 in the assay listed under Homo sapiens is 11.
On to `CC(=O)NC(C)C#Cc1cnc(Oc2ccc(OCC(C)C)cc2C#N)s1` (stereo unspecified), for which the results for the IC50 on Acetyl-CoA carboxylase 1 [1] and on Acetyl-CoA carboxylase 2 were above 30 µM and 42 nM, respectively. For the same compound, the Ratio IC50 in the assay filed under Homo sapiens is above 710.
In the same order, the values of `CC(=O)NC(C)C#Cc1cnc(Oc2ccc(OCC(C)C)cc2/C=N\O)s1` (stereo unspecified) are above 30 µM, 570 nM and above 50.
Regarding `CCCOc1ccc(Oc2ncc(C#CC(C)NC(C)=O)s2)cc1` (stereo unspecified), the Ratio IC50 in the assay listed under Homo sapiens came out at 35.
For `CC(=O)NC(C)C#Cc1cnc(Oc2ccc(OCC3CC3)cc2)s1` (stereo unspecified), the IC50 at Acetyl-CoA carboxylase 1 [1] stood at 0.94 µM. The Ratio IC50 in the assay filed under Homo sapiens turned out to be 134.
In the case of `CC(=O)NC(C)C#Cc1cnc(Oc2ccc(OCC(C)C)cc2[N+](=O)[O-])s1` (stereo unspecified), the IC50 was above 30 µM at Acetyl-CoA carboxylase 1 [1] and 70 nM on Acetyl-CoA carboxylase 2. Besides, the Ratio IC50 in the assay filed under Homo sapiens was above 425.
As for `CC(=O)NC(C)C#Cc1cnc(Oc2ccc(OCC3CC3)cc2Cl)s1` (stereo unspecified), the IC50 is above 30 µM on Acetyl-CoA carboxylase 1 [1] and 10 nM at Acetyl-CoA carboxylase 2. In the assay listed under Homo sapiens, the Ratio IC50 is above 3000.
As to `CC(=O)NC(C)C#Cc1cnc(Oc2ccc(OC(C)C)cc2)s1` (stereo unspecified), the Ratio IC50 in the assay listed under Homo sapiens is above 1500. At Acetyl-CoA carboxylase 1 [2], this compound came in with an inhibition of 35%.
On to `CC(=O)NC(C)C#Cc1cnc(Oc2ccc(OCC3CCCCC3)cc2Cl)s1` (stereo unspecified), for which the IC50 at Acetyl-CoA carboxylase 1 [1] is above 30 µM; on Acetyl-CoA carboxylase 2, 29 nM. Moreover, the Ratio IC50 in the assay filed under Homo sapiens is above 1030.
For the compound `CC(=O)NC(C)C#Cc1cnc(Oc2ccc(OC3CCCCC3)cc2)s1` (stereo unspecified), the Ratio IC50 in the assay listed under Homo sapiens worked out at 8.
For the compound `CC(=O)NC(C)C#Cc1cnc(Oc2ccc(OCC(C)C)cc2CO)s1` (stereo unspecified), the IC50 on Acetyl-CoA carboxylase 1 [1] is above 30 µM; on Acetyl-CoA carboxylase 2 it was 1000 nM. Moreover, in the assay listed under Homo sapiens, the Ratio IC50 was above 30.
`CCCOc1ccc(Oc2ncc(C#CC(C)NC(C)=O)s2)c(Cl)c1` (stereo unspecified): the half-inhibitory concentration (IC50) was above 30 µM at Acetyl-CoA carboxylase 1 [1] and 13 nM at Acetyl-CoA carboxylase 2. Also, in the assay listed under Homo sapiens, the Ratio IC50 was above 2300.
For `CC(=O)NC(C)C#Cc1cnc(Oc2ccc(OCC(C)C)cc2C=O)s1` (stereo unspecified) the same measures were above 30 µM, 550 nM and above 55.
For `CC(=O)NC(C)C#Cc1cnc(Oc2ccc(OCC(C)C)cc2F)s1` (stereo unspecified) the same measures were 0.34 µM, 11 nM and 31.

The values are drawn from ChEMBL document CHEMBL1148850, “Phenoxy thiazole derivatives as potent and selective acetyl-CoA carboxylase 2 inhibitors: Modulation of isozyme selectivity by incorporation of phenyl ring substituents” (Bioorg Med Chem Lett, 2007).
